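Results reflect a 48-hour exposure of cells in 96-well plates to compound at five concentrations. The concentration for 50% growth inhibition is given as GI50.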 Calls of active or inactive are those of the source. Rule as the data show it: active = GI50 up to about 1.1 µM and inactive = higher. A value given as a limit tells only on which side of the number the result lay.

Consider twelve compounds from ChEMBL document CHEMBL1201862, “PubChem BioAssay data set” (2004).

Test systems include KM-20L2; HL-60; OVCAR-5; UACC-62; 786-0; CAKI-1; IGROV-1; SNB-75; EKVX; OVCAR-3; NCI-H226; K562; HCT-15; Malme-3M; HCT-116; SF-295; SR.
What all share (experiment): NCI-60 cell line screen, 48 h

Consider `Cc1cc(N(CCC#N)CCC#N)ccc1/C=N\c1ccc(C(=O)NN2C(=O)/C(=C/c3ccc(N(CCC#N)CCC#N)cc3)N=C2c2cc([N+](=O)[O-])ccc2Cl)cc1`, for which the GI50 with KM-20L2 was 67.1 µM (inactive); in the test on HL-60, 61.1 µM (inactive); in the test with OVCAR-5, > 100 µM (inactive); in the test with UACC-62, 42.5 µM (inactive); in the test with 786-0, > 100 µM (inactive); in the test on CAKI-1, > 100 µM (inactive). In addition, the GI50 is > 100 µM (inactive) in the test with IGROV-1; > 100 µM (inactive) in the test on SNB-75; > 100 µM (inactive) in the test on EKVX; > 100 µM (inactive) in the test with OVCAR-3; > 100 µM (inactive) in the test with NCI-H226; 33 µM (inactive) with K562. Besides, the GI50 in the test with HCT-15 is 51.8 µM; in the test with Malme-3M, > 100 µM (inactive); with HCT-116 it was > 100 µM (inactive).

Regarding `CC(C)(C)c1cc2c(OP(c3ccccc3)c3ccccc3)c(c1)Cc1cc(C(C)(C)C)cc(c1OP(c1ccccc1)c1ccccc1)Cc1cc(C(C)(C)C)cc(c1OP(c1ccccc1)c1ccccc1)Cc1cc(C(C)(C)C)cc(c1OP(c1ccccc1)c1ccccc1)C2`, the GI50 in the test on SF-295, in the test with KM-20L2, in the test on HL-60, in the test with OVCAR-5, in the test on UACC-62 and in the test on 786-0 was > 5 µM (inactive) throughout. The GI50 in the test with CAKI-1, in the test on IGROV-1, in the test on SNB-75, in the test on EKVX, in the test on OVCAR-3 and in the test with NCI-H226 was > 5 µM (inactive) each time. In addition, the GI50 with K562 is > 5 µM (inactive); with HCT-15, greater than 5 µM; in the test on Malme-3M, > 5 µM (inactive); in the test with SR it was 2.66 µM (inactive); with HCT-116, > 5 µM (inactive).

In the case of `COc1cc(Nc2nc3cc(C)ccc3nc2-c2ccccc2)cc(OC)c1OC`, the GI50 with SF-295 was 20.9 µM (inactive); in the test with KM-20L2 it was 30.5 µM (inactive); with HL-60, 22.5 µM (inactive); in the test with OVCAR-5, > 100 µM (inactive); in the test with UACC-62, 21.5 µM (inactive); with 786-0 it was 14.7 µM (inactive). Besides, the GI50 in the test with CAKI-1 was 27.5 µM (inactive); in the test on IGROV-1, 63.8 µM (inactive); with SNB-75, 22.7 µM (inactive); in the test on EKVX it was 20.7 µM (inactive); in the test with OVCAR-3, 18.5 µM (inactive); with K562, 23.4 µM (inactive). In addition, the GI50 was 15.5 µM in the test on HCT-15, 29.6 µM (inactive) in the test on Malme-3M, 16.2 µM (inactive) in the test on SR and 19.9 µM (inactive) in the test with HCT-116.

Consider `CC1=CC(C)(c2c[nH]c3ccccc23)CC(C)(C)c2c1[nH]c1ccccc21` (centres undefined), for which the GI50 in the test on SF-295 was 14.5 µM (inactive); in the test with KM-20L2, 14.8 µM (inactive); with HL-60 it was 6.46 µM (inactive); in the test with OVCAR-5 it was 18 µM (inactive); in the test with UACC-62 it was 15.2 µM (inactive); in the test with 786-0, 13.8 µM (inactive). The GI50 is 16.2 µM (inactive) in the test with IGROV-1; 26.7 µM (inactive) with SNB-75; 15.6 µM (inactive) in the test on EKVX; 14 µM (inactive) with OVCAR-3; 18.6 µM (inactive) with NCI-H226; 11.9 µM (inactive) with K562. For the same compound, the GI50 was 16.6 µM (inactive) in the test on Malme-3M, 12.5 µM (inactive) with SR and 11.9 µM (inactive) in the test on HCT-116.

With `Cc1nc2c(n1C(C)(C)C)C(=O)c1ccccc1C2=O`, the GI50 with SF-295 was 87.3 µM (inactive); with KM-20L2, 51.5 µM (inactive); in the test with HL-60, 46.2 µM (inactive); in the test with UACC-62, 44.3 µM (inactive); in the test with 786-0, > 100 µM (inactive); with IGROV-1 it was 96.6 µM (inactive). Further, the GI50 is 31.9 µM (inactive) with SNB-75; > 100 µM (inactive) in the test on EKVX; 38.6 µM (inactive) with OVCAR-3; 67.9 µM (inactive) with NCI-H226; 49.7 µM (inactive) in the test with K562; 56.6 µM in the test with HCT-15. The GI50 in the test on Malme-3M was 44.6 µM (inactive); in the test on SR, 45 µM (inactive); in the test with HCT-116 it was 54 µM (inactive).

On to `CC(C)[C@H]1CO[C@]2(C)[C@@H]3CN(Cc4ccccc4)C[C@@H]3C(=O)N12`, for which the GI50 in the test with SF-295, with KM-20L2, in the test with HL-60, with UACC-62, in the test with 786-0 and in the test on CAKI-1 was > 100 µM (inactive) throughout. Further, the GI50 with IGROV-1, in the test on SNB-75, in the test on EKVX, with OVCAR-3, in the test with NCI-H226 and in the test with K562 was > 100 µM (inactive) throughout. Besides, the GI50 with HCT-15 is greater than 100 µM; in the test on Malme-3M, > 100 µM (inactive); with SR, > 100 µM (inactive); in the test with HCT-116 it was > 100 µM (inactive).

On to `O=C(CC1(O)C(=O)Nc2ccccc21)c1ccccc1O` (centres undefined), for which the GI50 in the test on SF-295, with KM-20L2, in the test with HL-60, in the test on OVCAR-5, with UACC-62 and with 786-0 was > 100 µM (inactive) throughout. Further, the GI50 in the test on CAKI-1, in the test on IGROV-1, with SNB-75, in the test with EKVX, in the test with OVCAR-3 and with NCI-H226 was > 100 µM (inactive) each time. Besides, the GI50 in the test with K562 is > 100 µM (inactive); in the test on HCT-15, greater than 100 µM; with Malme-3M, > 100 µM (inactive); in the test with HCT-116, > 100 µM (inactive).

Turning to `NC(=O)C12CC3CC(CC(Br)(C3)C1)C2`, the GI50 in the test on SF-295, in the test on KM-20L2, in the test with HL-60, in the test on OVCAR-5, with UACC-62 and in the test with 786-0 was > 100 µM (inactive) throughout. The GI50 in the test with CAKI-1 was > 100 µM (inactive); in the test on IGROV-1, > 100 µM (inactive); with SNB-75, 76.7 µM (inactive); with EKVX, > 100 µM (inactive); in the test with OVCAR-3, > 100 µM (inactive); in the test with HCT-15, greater than 100 µM. The GI50 with SR and in the test with HCT-116 was > 100 µM (inactive) in each case.

As to `C[C@@H](O)CCC(=O)c1ccoc1`, the GI50 in the test on SF-295, with KM-20L2, in the test with HL-60, in the test on OVCAR-5, in the test with UACC-62 and with 786-0 was > 100 µM (inactive) in each case. Further, the GI50 with CAKI-1 was > 100 µM (inactive); with IGROV-1 it was > 100 µM (inactive); in the test on SNB-75 it was > 49.2 µM (inactive); with EKVX, > 100 µM (inactive); in the test with OVCAR-3, > 100 µM (inactive); in the test on NCI-H226, > 100 µM (inactive). For the same compound, the GI50 in the test with K562 is > 100 µM (inactive); with HCT-15, greater than 100 µM; in the test with Malme-3M it was > 100 µM (inactive); with SR, > 84.3 µM (inactive); in the test with HCT-116, > 100 µM (inactive).

As for `O=S(=O)(N/N=C/c1cccc(Cl)c1Cl)c1ccccc1`, the GI50 with SF-295 was 79.6 µM (inactive); with KM-20L2, > 100 µM (inactive); in the test with HL-60 it was 39.9 µM (inactive); in the test on OVCAR-5, > 100 µM (inactive); with UACC-62, > 100 µM (inactive); in the test on 786-0 it was > 100 µM (inactive). The GI50 in the test on CAKI-1 was 69.3 µM (inactive); in the test on IGROV-1, 77.4 µM (inactive); in the test with SNB-75, 99.1 µM (inactive); with EKVX, > 100 µM (inactive); with OVCAR-3, > 100 µM (inactive); in the test with NCI-H226 it was > 100 µM (inactive). Also, the GI50 in the test on K562 is 62.2 µM (inactive); in the test on HCT-15 it was 98.2 µM; in the test with Malme-3M, > 100 µM (inactive); with SR, 38.8 µM (inactive); in the test with HCT-116 it was 47 µM (inactive).

Take `COc1ccc(C)cc1-c1cc(Sc2ccccc2)c(-c2cc(C)ccc2OC)o1`: the GI50 was > 100 µM (inactive) with SF-295; > 31.6 µM (inactive) in the test with KM-20L2; > 31.6 µM (inactive) in the test on HL-60; > 100 µM (inactive) in the test on OVCAR-5; > 31.6 µM (inactive) with UACC-62; > 31.6 µM (inactive) with 786-0. The GI50 in the test with CAKI-1, with IGROV-1, in the test with SNB-75, with EKVX, in the test on OVCAR-3 and with NCI-H226 was > 31.6 µM (inactive) throughout. In addition, the GI50 with K562 is > 31.6 µM (inactive); with HCT-15, greater than 31.6 µM; in the test on Malme-3M, > 31.6 µM (inactive); in the test with HCT-116, > 31.6 µM (inactive).

On to `COc1ccc(/C=C(\NC(=O)c2ccccc2)c2nc3ccccc3[nH]2)cc1`, for which the GI50 was 38.5 µM (inactive) with KM-20L2; 29 µM (inactive) in the test with OVCAR-5; 24 µM (inactive) in the test with UACC-62; 44 µM (inactive) in the test on 786-0; 36.9 µM (inactive) with CAKI-1; 30.5 µM (inactive) in the test on IGROV-1. For the same compound, the GI50 with SNB-75 is 29.4 µM (inactive); with EKVX, 35.9 µM (inactive); with OVCAR-3, 34.5 µM (inactive); with NCI-H226, 72.9 µM (inactive); with K562, 34.9 µM (inactive); in the test with HCT-15 it was 48.2 µM. Besides, the GI50 in the test with Malme-3M is 36.3 µM (inactive); with SR, 28.1 µM (inactive); in the test on HCT-116, 35.2 µM (inactive).
